Data as given in patent publication US9643967B2, “Pyrrolo[3,2-c]pyridine derivatives as TLR inhibitors” (TAKEDA PHARMACEUTICAL COMPANY LIMITED, priority 2013, dated 2017).
Read-outs that look alike come from different tables or passages of the source.

Target: T1, mTLR9 (Mus musculus, UniProt Q9EQU3)
T1 construct: Splenocytes isolated from male C57/BL6 mice; from tissue; host or cells: splenocytes from the spleen of male C57BL/6 mice
T1 sequence (Q9EQU3 26-1032): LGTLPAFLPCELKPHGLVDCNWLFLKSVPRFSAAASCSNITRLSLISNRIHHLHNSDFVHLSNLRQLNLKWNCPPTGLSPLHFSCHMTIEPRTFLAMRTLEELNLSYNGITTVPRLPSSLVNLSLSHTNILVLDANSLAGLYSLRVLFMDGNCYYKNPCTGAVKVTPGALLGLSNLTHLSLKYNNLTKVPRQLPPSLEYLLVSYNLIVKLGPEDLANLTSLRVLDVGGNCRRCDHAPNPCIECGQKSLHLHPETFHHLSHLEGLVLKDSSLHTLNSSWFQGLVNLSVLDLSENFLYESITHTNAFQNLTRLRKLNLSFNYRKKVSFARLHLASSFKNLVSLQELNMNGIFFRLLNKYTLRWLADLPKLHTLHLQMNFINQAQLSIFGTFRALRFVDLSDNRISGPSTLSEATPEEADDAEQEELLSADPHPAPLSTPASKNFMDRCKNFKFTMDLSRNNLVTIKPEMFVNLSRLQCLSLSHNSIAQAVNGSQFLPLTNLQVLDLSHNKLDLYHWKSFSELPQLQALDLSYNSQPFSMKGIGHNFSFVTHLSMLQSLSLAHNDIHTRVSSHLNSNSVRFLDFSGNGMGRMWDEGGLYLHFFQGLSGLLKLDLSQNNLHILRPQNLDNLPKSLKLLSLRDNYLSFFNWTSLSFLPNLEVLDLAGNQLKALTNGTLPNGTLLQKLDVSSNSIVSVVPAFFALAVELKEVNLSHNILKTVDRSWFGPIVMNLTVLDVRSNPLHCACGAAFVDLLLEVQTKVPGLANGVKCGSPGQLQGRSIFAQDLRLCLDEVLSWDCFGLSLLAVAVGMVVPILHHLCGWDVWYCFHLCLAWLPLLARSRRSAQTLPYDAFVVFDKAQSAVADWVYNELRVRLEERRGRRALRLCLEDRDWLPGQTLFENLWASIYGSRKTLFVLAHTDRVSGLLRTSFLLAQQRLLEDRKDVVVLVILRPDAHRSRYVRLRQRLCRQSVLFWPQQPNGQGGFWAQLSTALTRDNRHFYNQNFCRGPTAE
Test: mTLR9 antagonism (IL-6 and TNF-α release assay) in mouse splenocytes, CpG ODN-2006 stimulated
Type: cell-based
Settings: 1 μM, mouse splenocytes
Method in brief: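 C57BL6 mouse splenocytes (0.2 million/well) pre-incubated 30 min at 37 °C with compounds (30 μM–1 nM, 0.3% DMSO), then stimulated with 1 μg/ml CpG ODN-2006 overnight at 37 °C/5% CO2. IL-6 and TNF-α in supernatant measured by ELISA; IC50 from % inhibition curves.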

[1] = IL-6 release, read-out: mTLR9 inhibitory activity (% at 1 μM), IL-6
[2] = TNF-α release, read-out: mTLR9 inhibitory activity (% at 1 μM), TNF-α

inhibition at 1 µM [1]	inhibition at 1 µM [2]	Structure (SMILES)
94%	100%	Cc1cc2[nH]c(CCCN3CCCCC3)cc2c(-c2ccc(N3CCN(C(C)C)CC3)cc2)n1 [Example C5, 4-[4-(4-isopropylpiperazin-1-yl)phenyl]-6-methyl-2-[3-(1-piperidyl)propyl]-1H-pyrrolo[3,2-c]pyridine]
100%	100%	Cc1cc2c(cc(CCCN3CCOCC3)n2C)c(-c2ccc(N3CCN(C(C)C)CC3)cc2)n1 [Example C6, 4-[3-[4-[4-(4-isopropylpiperazin-1-yl)phenyl]-1,6-dimethyl-pyrrolo[3,2-c]pyridin-2-yl]propyl]morpholine]
